This is an account of results in patent US6960573B2, “Vitamin D3 derivative and treating agent for inflammatory respiratory disease using same” (Teijin Limited, priority 1998, dated 2005).

The structures appear in SMILES notation. Bounds are passed on as bounds.

System in one data set: not listed separately
The data set is described as follows: Blood calcium level-elevation effect, oral administration to rats. The settings on record: ratio to 1α,25-dihydroxyvitamin D3. Format: in vivo. An excerpt:
For example, the blood calcium level-elevation effects of compounds of the present invention in oral administration to rats, which are compared with that of 1 α,25-dihydroxyvitamin D3, are as shown below: • Compound No. 3105c, 1/>100 • Compound No.3405, 1/>100 • Compound No. 5102, 1/259 • Compound No. 5107, 1/11.
Regarding `C=C1/C(=C\C=C2/CCC[C@@]3(C)C2CC[C@@H]3[C@H](C)CCC[C@@](C)(O)C(C)=O)C[C@@H](O)C[C@@H]1O` (some centres unmarked) [Compound No. 5107], the “blood calcium level-elevation effect compared with that of 1α,25-dihydroxyvitamin D3” value is listed as 1/11. Consider `C=C1/C(=C\C=C2/CCC[C@@]3(C)C2CC[C@@H]3[C@H](C)CCC[C@@](C)(O)C(=O)N(C)C)C[C@@H](O)C[C@@H]1O` (some centres unmarked) [Compound No. 5102], for which the “blood calcium level-elevation effect compared with that of 1α,25-dihydroxyvitamin D3” value is listed as 1/259.

The next data set concerns hamster LPS-induced pneumonia model. The data set is described as follows: Neutrophilic infiltration suppressing effect, hamster LPS-induced pneumonia model. To be noted: Mesocricetus auratus, Neutrophil, inhaled or nasal; dose 4 μg/kg, administered infratracheally just after LPS inhalation; neutrophils in washing after 24 hr; read-out: % Suppression (number of neutrophils, based on the control). Format: in vivo, golden hamster. The method, then: A male golden hamster was placed in an inhalation chamber (volume: 12 liter) and allowed to inhale LPS (nebulizer filled concentration: 2.0 mg/ml) generated by an ultrasonic nebulizer for 30 min to cause pneumonia. Just after the inhalation of the LPS, a treating agent of the present invention was administered infratracheally at a dosage of 1 to 20 μg/kg under halothane anesthesia. After 24 hr, tracheal branches and pulmonary alveoli were washed, and the number of neutrophils in the washing was determined. Using the number of neutrophils obtained in the absence of the treating agent of the present invention as the control, the decreasing rates of the numbers of neutrophils were expressed in terms of percent suppression based on the control.
With `C=C1/C(=C\C=C2/CCC[C@@]3(C)C2CC[C@@H]3[C@H](C)CC2CC3(CC3)C(=O)O2)C[C@@H](O)C[C@@H]1O` (some centres unmarked) [2105a], the inhibition in vivo at 0.004 mg/kg is > 40%. Regarding `C=C1/C(=C\C=C2/CCC[C@@]3(C)C2CC[C@@H]3[C@H](C)/C=C2\CCN(C)C2=O)C[C@@H](O)C[C@@H]1O` (some centres unmarked) [Compound No. 3405], the inhibition in vivo at 0.004 mg/kg was > 40%. In the case of `C=C1/C(=C\C=C2/CCC[C@@]3(C)C2CC[C@@H]3[C@H](C)CC2CC(C)(C)C(=O)O2)C[C@@H](O)C[C@@H]1O` (some centres unmarked) [2102a], the inhibition in vivo at 0.004 mg/kg was > 40%. In the case of `C=C1/C(=C\C=C2/CCC[C@@]3(C)C2CC[C@@H]3[C@H](C)C[C@H]2C=C(C)C(=O)O2)C[C@@H](O)C[C@@H]1O` (some centres unmarked) [Compound No. 1107b], the inhibition in vivo at 0.004 mg/kg was < 20%. Consider `C=C1/C(=C\C=C2/CCC[C@@]3(C)C2CC[C@@H]3[C@H](C)/C=C2\CCC(C)(F)C2=O)C[C@@H](O)C[C@@H]1O` (some centres unmarked) [3105d], for which the inhibition in vivo at 0.004 mg/kg is > 40%. The same measure, in the same setting: then `C=C1/C(=C\C=C2/CCC[C@@]3(C)C2CC[C@@H]3C(C)/C=C2\CCC(=O)C2(C)O)C[C@@H](O)C[C@@H]1O` (some centres unmarked) [4203b], with 20 to 40%; and `C=C1/C(=C\C=C2/CCC[C@@]3(C)C2CC[C@@H]3[C@H](C)CC2CCC(=O)C2)C[C@@H](O)C[C@@H]1O` (some centres unmarked) [4101a], with 20 to 40%.

Still in this data set, the particulars now being: Mesocricetus auratus, Neutrophil, inhaled or nasal; dose 20 μg/kg, administered infratracheally just after LPS inhalation; neutrophils in washing after 24 hr; read-out: % Suppression (number of neutrophils, based on the control).
Take `C=C1/C(=C\C=C2/CCC[C@@]3(C)C2CC[C@@H]3[C@H](C)CC2=CC(=O)CC2)C[C@@H](O)C[C@@H]1O` (some centres unmarked) [Compound No. 4301]: the inhibition in vivo at 0.02 mg/kg was < 20%. The same measure, in the same setting: then `C=C1/C(=C\C=C2/CCC[C@@]3(C)C2CC[C@@H]3[C@H](C)CCC[C@@](C)(O)C(C)(C)O)C[C@@H](O)C[C@@H]1O` (some centres unmarked) [compound 5109], with 20 to 40%; and `C=C1/C(=C\C=C2/CCC[C@@]3(C)C2CC[C@@H]3[C@H](C)CCC[C@@](C)(O)C(C)=O)C[C@@H](O)C[C@@H]1O` (some centres unmarked) [Compound No. 5107], with > 40%.

On to `C=C1/C(=C\C=C2/CCC[C@@]3(C)C2CC[C@@H]3[C@H](C)CCC[C@@](C)(O)C(=O)N(C)C)C[C@@H](O)C[C@@H]1O` (some centres unmarked) [Compound No. 5102], for which the inhibition in vivo at 0.02 mg/kg is > 40%. Turning to `C=C1/C(=C\C=C2/CCC[C@@]3(C)C2CC[C@@H]3[C@H](C)CCC[C@@](C)(O)C(=O)N2CCCCC2)C[C@@H](O)C[C@@H]1O` (some centres unmarked) [Compound No. 5106], the inhibition in vivo at 0.02 mg/kg was 20 to 40%.
